Results published in patent US20260027116A1, “Methods of Treating Chronic Graft-Versus-Host Disease Following Allogeneic Hematopoietic Stem Cell Transplantation” (Kadmon Corporation, LLC, priority 2022, published 2026).

Assays:
[1] = tested on: chronic graft-versus-host disease (cGVHD); assay: Example 2 phase II randomized study: response per 2014 NIH criteria (best ORR, DOR, TTR, FFS, OS); format: in vivo, human; settings: for ORR / ORR for responses occurring within 6 mo of treatment / ORR for responses occurring within 12 mo of treatment: mITT
Method: All responses were assessed by the study site investigators.
Here, we report data from the 12-month analysis.

[2] = target: human serum albumin (Homo sapiens, UniProt P02768); assay: protein binding in vitro; format: in vitro ADME
[3] = target: P-gp (Homo sapiens, UniProt P08183); assay: transporter substrate in vitro; format: in vitro ADME
[4] = responses within 6 mo of treatment, 200 mg daily (n = 66)
[5] = responses within 6 mo of treatment, 200 mg twice daily (n = 66)
[6] = responses within 6 mo of treatment, Total (N = 132)
[7] = responses within 12 mo of treatment, 200 mg daily (n = 66)
[8] = responses within 12 mo of treatment, 200 mg twice daily (n = 66)
[9] = responses within 12 mo of treatment, Total (N = 132)

Chain of human serum albumin (P02768 25-609): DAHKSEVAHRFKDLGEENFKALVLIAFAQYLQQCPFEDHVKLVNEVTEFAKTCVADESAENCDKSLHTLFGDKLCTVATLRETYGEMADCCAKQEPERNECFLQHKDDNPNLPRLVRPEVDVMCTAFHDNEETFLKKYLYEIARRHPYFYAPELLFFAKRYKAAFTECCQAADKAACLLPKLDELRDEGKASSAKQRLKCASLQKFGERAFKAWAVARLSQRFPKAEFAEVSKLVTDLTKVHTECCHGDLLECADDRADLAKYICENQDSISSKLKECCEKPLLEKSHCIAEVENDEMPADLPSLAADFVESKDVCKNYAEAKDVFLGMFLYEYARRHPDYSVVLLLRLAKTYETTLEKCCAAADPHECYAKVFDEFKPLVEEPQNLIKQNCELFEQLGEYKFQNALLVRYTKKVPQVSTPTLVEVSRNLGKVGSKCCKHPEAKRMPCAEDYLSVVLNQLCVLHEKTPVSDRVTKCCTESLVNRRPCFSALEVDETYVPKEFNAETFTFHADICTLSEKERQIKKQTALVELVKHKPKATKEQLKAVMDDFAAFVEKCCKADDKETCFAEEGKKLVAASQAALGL
Chain of P-gp (P08183 whole entry): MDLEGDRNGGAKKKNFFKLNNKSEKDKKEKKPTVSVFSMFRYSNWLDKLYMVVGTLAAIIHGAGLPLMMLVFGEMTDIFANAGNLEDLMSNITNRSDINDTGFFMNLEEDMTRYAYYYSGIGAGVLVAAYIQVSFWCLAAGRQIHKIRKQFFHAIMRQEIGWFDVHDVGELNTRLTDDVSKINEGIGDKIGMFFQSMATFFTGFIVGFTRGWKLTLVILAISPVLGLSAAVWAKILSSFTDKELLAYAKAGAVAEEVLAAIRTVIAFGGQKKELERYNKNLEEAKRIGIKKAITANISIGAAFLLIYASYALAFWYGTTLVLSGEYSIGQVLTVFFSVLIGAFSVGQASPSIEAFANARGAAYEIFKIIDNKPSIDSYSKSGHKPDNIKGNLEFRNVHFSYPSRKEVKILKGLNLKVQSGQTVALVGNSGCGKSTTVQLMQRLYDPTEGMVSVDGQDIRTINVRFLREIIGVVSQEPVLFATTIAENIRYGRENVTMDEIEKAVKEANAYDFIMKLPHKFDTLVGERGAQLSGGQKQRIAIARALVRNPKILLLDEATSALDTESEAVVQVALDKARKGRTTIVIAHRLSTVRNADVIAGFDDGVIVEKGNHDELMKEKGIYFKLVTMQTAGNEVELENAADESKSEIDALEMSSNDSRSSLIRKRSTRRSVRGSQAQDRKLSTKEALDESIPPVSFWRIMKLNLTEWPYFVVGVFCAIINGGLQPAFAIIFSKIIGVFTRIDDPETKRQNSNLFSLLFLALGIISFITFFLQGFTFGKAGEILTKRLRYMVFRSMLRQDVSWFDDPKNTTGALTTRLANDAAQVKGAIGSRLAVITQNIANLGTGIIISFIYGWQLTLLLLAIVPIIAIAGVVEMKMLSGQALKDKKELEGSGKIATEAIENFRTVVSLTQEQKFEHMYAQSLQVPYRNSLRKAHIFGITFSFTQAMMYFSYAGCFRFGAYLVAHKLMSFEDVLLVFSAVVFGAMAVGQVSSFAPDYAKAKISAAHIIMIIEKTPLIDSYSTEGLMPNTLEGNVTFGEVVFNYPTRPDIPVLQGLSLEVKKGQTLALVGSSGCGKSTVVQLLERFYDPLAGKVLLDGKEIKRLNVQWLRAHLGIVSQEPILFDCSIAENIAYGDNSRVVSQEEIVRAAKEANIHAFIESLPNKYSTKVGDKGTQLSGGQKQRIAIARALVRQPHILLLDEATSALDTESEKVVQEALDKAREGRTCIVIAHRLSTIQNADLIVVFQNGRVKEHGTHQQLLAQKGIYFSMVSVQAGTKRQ

CC(C)NC(=O)COc1cccc(-c2nc(Nc3ccc4[nH]ncc4c3)c3ccccc3n2)c1 [Belumosudil, 2-{3-[4-(1H-indazol-5-ylamino)-2-quinazolinyl]phenoxy}-N-(propan-2-yl) acetamide]
CR, Esophagus ([1]; 200 mg BID): 5 (42) n (%) | CR, Eyes ([1]; 200 mg BID): 6 (12) n (%) | CR, Joints and fascia ([1]; 200 mg BID): 10 (20) n (%) | CR, Liver ([1]; 200 mg BID): 2 (50) n (%) | CR, Lower GI ([1]; 200 mg BID): 4 (57) n (%) | CR, Lungs ([1]; 200 mg BID): 2 (9) n (%) | CR, Mouth ([1]; 200 mg BID): 17 (41) n (%) | CR, Skin ([1]; 200 mg BID): 10 (18) n (%) | CR, Upper GI ([1]; 200 mg BID): 4 (40) n (%) | ORR, Esophagus ([1]; 200 mg BID): 5 (42) n (%) | ORR, Eyes ([1]; 200 mg BID): 25 (51) n (%) | ORR, Joints and fascia ([1]; 200 mg BID): 33 (67) n (%) | ORR, Liver ([1]; 200 mg BID): 2 (50) n (%) | ORR, Lower GI ([1]; 200 mg BID): 5 (71) n (%) | ORR, Lungs ([1]; 200 mg BID): 5 (22) n (%) | ORR, Mouth ([1]; 200 mg BID): 24 (57) n (%) | ORR, Skin ([1]; 200 mg BID): 23 (42) n (%) | ORR, Upper GI ([1]; 200 mg BID): 4 (40) n (%) | PR, Esophagus ([1]; 200 mg BID): 0 n (%) | PR, Eyes ([1]; 200 mg BID): 19 (39) n (%) | PR, Joints and fascia ([1]; 200 mg BID): 23 (47) n (%) | PR, Liver ([1]; 200 mg BID): 0 n (%) | PR, Lower GI ([1]; 200 mg BID): 1 (14) n (%) | PR, Lungs ([1]; 200 mg BID): 3 (13) n (%) | PR, Mouth ([1]; 200 mg BID): 7 (17) n (%) | PR, Skin ([1]; 200 mg BID): 13 (24) n (%) | PR, Upper GI ([1]; 200 mg BID): 0 n (%) | CR, Esophagus ([1]; 200 mg QD): 9 (47) n (%) | CR, Eyes ([1]; 200 mg QD): 8 (17) n (%) | CR, Joints and fascia ([1]; 200 mg QD): 10 (20) n (%) | CR, Liver ([1]; 200 mg QD): 2 (22) n (%) | CR, Lower GI ([1]; 200 mg QD): 4 (67) n (%) | CR, Lungs ([1]; 200 mg QD): 4 (17) n (%) | CR, Mouth ([1]; 200 mg QD): 15 (50) n (%) | CR, Skin ([1]; 200 mg QD): 8 (15) n (%) | CR, Upper GI ([1]; 200 mg QD): 7 (54) n (%) | ORR, Esophagus ([1]; 200 mg QD): 9 (47) n (%) | ORR, Eyes ([1]; 200 mg QD): 16 (33) n (%) | ORR, Joints and fascia ([1]; 200 mg QD): 38 (75) n (%) | ORR, Liver ([1]; 200 mg QD): 3 (33) n (%) | ORR, Lower GI ([1]; 200 mg QD): 4 (67) n (%) | ORR, Lungs ([1]; 200 mg QD): 7 (29) n (%) | ORR, Mouth ([1]; 200 mg QD): 16 (53) n (%) | ORR, Skin ([1]; 200 mg QD): 18 (33) n (%) | ORR, Upper GI ([1]; 200 mg QD): 8 (62) n (%) | PR, Esophagus ([1]; 200 mg QD): 0 n (%) | PR, Eyes ([1]; 200 mg QD): 8 (17) n (%) | PR, Joints and fascia ([1]; 200 mg QD): 28 (55) n (%) | PR, Liver ([1]; 200 mg QD): 1 (11) n (%) | PR, Lower GI ([1]; 200 mg QD): 0 n (%) | PR, Lungs ([1]; 200 mg QD): 3 (13) n (%) | PR, Mouth ([1]; 200 mg QD): 1 (3) n (%) | PR, Skin ([1]; 200 mg QD): 10 (18) n (%) | PR, Upper GI ([1]; 200 mg QD): 1 (8) n (%) | FFS at 6 mo (95% CI) ([1]; 200 mg daily (n = 66)): 73 (61-83) % | FFS at 12 mo (95% CI) ([1]; 200 mg daily (n = 66)): 57 (44-68) % | FFS at 6 mo (95% CI) ([1]; 200 mg twice daily (n = 66)): 76 (63-84) % | FFS at 12 mo (95% CI) ([1]; 200 mg twice daily (n = 66)): 56 (43-67) % | 2-year OS rate ([1]; Example 2): 89% | additional lung CRs based on NIH lung symptom score 1 to 0 ([1]; Example 2): 3 subjects | best ORR in subjects refractory to their last lines of therapy ([1]; Example 2): 75% | initiation of a new systemic cGVHD therapy (failure event) ([1]; Example 2): 38% | lung CR based on normalization of FEV1 ([1]; Example 2): 3 subjects | median FEV1 increase for all subjects achieving lung PR ([1]; Example 2): 10% | median FEV1 increase in lung CR subjects ([1]; Example 2): 23% | nonrelapse mortality (NRM) ([1]; Example 2): 7% | overall median time to response ([1]; Example 2): 5 weeks | relapse ([1]; Example 2): 3% | responses seen after 6 to 12 months of treatment ([1]; Example 2): 9% | skin responders with decrease in body surface area involvement ([1]; Example 2): 15 subjects | skin responders with decrease in sclerotic features ([1]; Example 2): 11 subjects | skin responders with improvement in both body surface area and sclerotic features ([1]; Example 2): 13 subjects | subjects with lung responses ([1]; Example 2): 12 subjects | subjects with skin responses ([1]; Example 2): 41 subjects | best ORR ([1]; Example 2, 200 mg daily): 74% | best ORR ([1]; Example 2, 200 mg twice daily): 77% | overall FFS rate ([1]; Example 2, at 6 months): 75% | overall FFS rate ([1]; Example 2, at 12 months): 56% | ORRs in all subgroups ([1]; Example 2, mITT): 61-85% | best ORR in the esophagus ([1]; Example 2, mITT): 45% | best ORR in the eyes ([1]; Example 2, mITT): 42% | best ORR in the joints/fascia ([1]; Example 2, mITT): 71% | best ORR in the liver ([1]; Example 2, mITT): 39% | best ORR in the lower GI tract ([1]; Example 2, mITT): 69% | best ORR in the lungs ([1]; Example 2, mITT): 26% | best ORR in the mouth ([1]; Example 2, mITT): 55% | best ORR in the skin ([1]; Example 2, mITT): 37% | best ORR in the upper GI tract ([1]; Example 2, mITT): 52% | ORR, subgroup with prior ibrutinib therapy ([1]; Example 2, pooled arms): 74% | ORR, subgroup with prior ruxolitinib therapy ([1]; Example 2, pooled arms): 68% | median DOR ([1]; Example 2, responder population): 54 weeks | CR, Esophagus ([1]; Total): 14 (45) n (%) | CR, Eyes ([1]; Total): 14 (14) n (%) | CR, Joints and fascia ([1]; Total): 20 (20) n (%) | CR, Liver ([1]; Total): 4 (31) n (%) | CR, Lower GI ([1]; Total): 8 (62) n (%) | CR, Lungs ([1]; Total): 6 (13) n (%) | CR, Mouth ([1]; Total): 32 (44) n (%) | CR, Skin ([1]; Total): 18 (16) n (%) | CR, Upper GI ([1]; Total): 11 (48) n (%) | ORR, Esophagus ([1]; Total): 14 (45) n (%) | ORR, Eyes ([1]; Total): 41 (42) n (%) | ORR, Joints and fascia ([1]; Total): 71 (71) n (%) | ORR, Liver ([1]; Total): 5 (39) n (%) | ORR, Lower GI ([1]; Total): 9 (69) n (%) | ORR, Lungs ([1]; Total): 12 (26) n (%) | ORR, Mouth ([1]; Total): 40 (56) n (%) | ORR, Skin ([1]; Total): 41 (37) n (%) | ORR, Upper GI ([1]; Total): 12 (52) n (%) | PR, Esophagus ([1]; Total): 0 n (%) | PR, Eyes ([1]; Total): 27 (28) n (%) | PR, Joints and fascia ([1]; Total): 51 (51) n (%) | PR, Liver ([1]; Total): 1 (8) n (%) | PR, Lower GI ([1]; Total): 1 (8) n (%) | PR, Lungs ([1]; Total): 6 (13) n (%) | PR, Mouth ([1]; Total): 8 (11) n (%) | PR, Skin ([1]; Total): 23 (21) n (%) | PR, Upper GI ([1]; Total): 1 (4) n (%) | FFS at 6 mo (95% CI) ([1]; Total (N = 132)): 75 (66-81) % | FFS at 12 mo (95% CI) ([1]; Total (N = 132)): 56 (47-64) % | ORR ([1]; 200 mg daily (n = 66)): 49 (74) n (%) | ORR for responses occurring within 6 mo of treatment ([1]; 200 mg daily (n = 66)): 47 (71) n (%) | ORR for responses occurring within 12 mo of treatment ([1]; 200 mg daily (n = 66)): 49 (74) n (%) | ORR ([1]; 200 mg twice daily (n = 66)): 51 (77) n (%) | ORR for responses occurring within 6 mo of treatment ([1]; 200 mg twice daily (n = 66)): 48 (73) n (%) | ORR for responses occurring within 12 mo of treatment ([1]; 200 mg twice daily (n = 66)): 50 (76) n (%) | ORR ([1]; Total (N = 132)): 100 (76) n (%) | ORR for responses occurring within 6 mo of treatment ([1]; Total (N = 132)): 95 (72) n (%) | ORR for responses occurring within 12 mo of treatment ([1]; Total (N = 132)): 99 (75) n (%) | CR [1, 4]: 2 (3) n (%) | PR [1, 4]: 45 (68) n (%) | CR [1, 5]: 1 (2) n (%) | PR [1, 5]: 47 (71) n (%) | CR [1, 6]: 3 (2) n (%) | PR [1, 6]: 92 (70) n (%) | CR [1, 7]: 4 (6) n (%) | PR [1, 7]: 45 (68) n (%) | CR [1, 8]: 2 (3) n (%) | PR [1, 8]: 48 (73) n (%) | CR [1, 9]: 6 (5) n (%) | PR [1, 9]: 93 (71) n (%) | binding to human serum albumin [2]: 99.9% | P-gp substrate [3]: substrate of P-gp
